Activity calls are given as the source filed them. The rule behind the calls is not given here.
Tested on: CCRIS mutagenicity, Ames/micronucleus/aberration tests
Assay: CCRIS mutagenicity studies
[1] = Test System: AMES SALMONELLA TYPHIMURIUM, Strain/Indicator: TA98, Metabolic Activation: NONE, Method: PREINCUBATION
[2] = Test System: AMES SALMONELLA TYPHIMURIUM, Strain/Indicator: TA98, Metabolic Activation: NONE, Method: STANDARD PLATE
[3] = Test System: AMES SALMONELLA TYPHIMURIUM, Strain/Indicator: TA98, Metabolic Activation: RAT, LIVER, S-9, AROCLOR 1254, Method: STANDARD PLATE
[4] = Test System: AMES SALMONELLA TYPHIMURIUM, Strain/Indicator: TA100, Metabolic Activation: NONE, Method: STANDARD PLATE
[5] = Test System: AMES SALMONELLA TYPHIMURIUM, Strain/Indicator: TA97, Metabolic Activation: NONE, Method: STANDARD PLATE

CCCOC(=O)C=Cc1ccc([N+](=O)[O-])o1
mutagenic call [1]: active; positive

CC(=O)Nc1ccc(/C=C/C(=O)c2ccccc2)cc1
mutagenic call [2]: inactive; negative | mutagenic call [3]: active; positive | mutagenic call [4]: active; positive | mutagenic call (Test System: AMES SALMONELLA TYPHIMURIUM, Strain/Indicator: TA100, Metabolic Activation: RAT, LIVER, S-9, AROCLOR 1254, Method: STANDARD PLATE): active; positive

c1cc2ccc3cccc4ccc(c1)c2c34
mutagenic call (End Point: IN VITRO MICRONUCLEUS, Test System: CHO CELLS, Metabolic Activation: RAT, LIVER, S-9, AROCLOR 1254): inactive; negative | mutagenic call (End Point: IN VITRO MICRONUCLEUS, Test System: V79 CELLS, Metabolic Activation: NONE): inactive; negative | mutagenic call [5]: inactive; negative | mutagenic call (Test System: AMES SALMONELLA TYPHIMURIUM, Strain/Indicator: TA97, Metabolic Activation: RAT, LIVER, S-9, AROCLOR 1254, Method: STANDARD PLATE): active; positive | mutagenic call (Test System: AMES SALMONELLA TYPHIMURIUM, Strain/Indicator: TA97, Metabolic Activation: RAT, LIVER, S-9, PCB, Method: STANDARD PLATE): active; positive | mutagenic call (Test System: AMES SALMONELLA TYPHIMURIUM, Strain/Indicator: TA97A, Metabolic Activation: RAT, LIVER, S-9, AROCLOR 1254, Method: STANDARD PLATE): active; positive | mutagenic call [1]: inactive; negative | mutagenic call [2]: inactive; negative | mutagenic call (Test System: AMES SALMONELLA TYPHIMURIUM, Strain/Indicator: TA98, Metabolic Activation: RAT, LIVER, S-9, AROCLOR 1254, Method: PREINCUBATION): inactive; negative | mutagenic call [3]: inactive; negative | mutagenic call (Test System: AMES SALMONELLA TYPHIMURIUM, Strain/Indicator: TA98, Metabolic Activation: RAT, LIVER, S-9, PCB, Method: STANDARD PLATE): active; positive | mutagenic call (Test System: AMES SALMONELLA TYPHIMURIUM, Strain/Indicator: TA100, Metabolic Activation: MOUSE, LIVER, MICROSOMES, BENZO[E]PYRENE AND TCDD, Method: STANDARD PLATE): inactive; negative | mutagenic call (Test System: AMES SALMONELLA TYPHIMURIUM, Strain/Indicator: TA100, Metabolic Activation: NONE, Method: PREINCUBATION): inactive; negative | mutagenic call [4]: inactive; negative | mutagenic call (Test System: AMES SALMONELLA TYPHIMURIUM, Strain/Indicator: TA100, Metabolic Activation: RAT, LIVER, S-9, AROCLOR 1254, Method: PREINCUBATION): inactive; negative | mutagenic call (Test System: AMES SALMONELLA TYPHIMURIUM, Strain/Indicator: TA100, Metabolic Activation: RAT, LIVER, S-9, PCB, Method: STANDARD PLATE): inactive; negative | mutagenic call (Test System: AMES SALMONELLA TYPHIMURIUM, Strain/Indicator: TA1537, Metabolic Activation: RAT, LIVER, S-9, AROCLOR 1254, Method: STANDARD PLATE): active; positive | mutagenic call (Test System: CHINESE HAMSTER OVARY, Strain/Indicator: CHO (HGPRT)/6-THIOGUANINE, Metabolic Activation: NONE, Method: STANDARD PLATE): inactive; negative | mutagenic call (Test System: CHINESE HAMSTER OVARY, Strain/Indicator: CHO (HGPRT)/6-THIOGUANINE, Metabolic Activation: RAT, LIVER, S-9, AROCLOR 1254, Method: STANDARD PLATE): inactive; negative | mutagenic call (Test System: CHINESE HAMSTER OVARY, Strain/Indicator: CHO-K1-BH4 (HGPRT)/6-THIOGUANINE, Metabolic Activation: NONE, Method: SUSPENSION/PLATE): inactive; negative | mutagenic call (Test System: CHINESE HAMSTER OVARY, Strain/Indicator: CHO-K1-BH4 (HGPRT)/6-THIOGUANINE, Metabolic Activation: S-9, Method: SUSPENSION/PLATE): inactive; negative | mutagenic call (Test System: CHINESE HAMSTER OVARY, Strain/Indicator: CHO-K1-BH4 (HGPRT), Metabolic Activation: NONE, Method: SUSPENSION/PLATE): inactive; negative | mutagenic call (Test System: CHINESE HAMSTER OVARY, Strain/Indicator: CHO-K1-BH4 (HGPRT), Metabolic Activation: RAT, LIVER, S-9, AROCLOR, Method: SUSPENSION/PLATE): inactive; negative | mutagenic call (Test System: E. COLI, Strain/Indicator: WP2 UVRA, Metabolic Activation: HAMSTER, LIVER, S-9, AROCLOR 1254, Method: STANDARD PLATE): inactive; negative | mutagenic call (Test System: E. COLI, Strain/Indicator: WP2 UVRA, Metabolic Activation: HAMSTER, LIVER, S-9, Method: STANDARD PLATE): inactive; negative | mutagenic call (Test System: E. COLI, Strain/Indicator: WP2 UVRA, Metabolic Activation: MOUSE, LIVER, S-9, AROCLOR 1254, Method: STANDARD PLATE): inactive; negative | mutagenic call (Test System: E. COLI, Strain/Indicator: WP2 UVRA, Metabolic Activation: MOUSE, LIVER, S-9, Method: STANDARD PLATE): inactive; negative | mutagenic call (Test System: E. COLI, Strain/Indicator: WP2 UVRA, Metabolic Activation: NONE, Method: STANDARD PLATE): inactive; negative | mutagenic call (Test System: E. COLI, Strain/Indicator: WP2 UVRA, Metabolic Activation: RAT, LIVER, S-9, AROCLOR 1254, Method: STANDARD PLATE): inactive; negative | mutagenic call (Test System: E. COLI, Strain/Indicator: WP2 UVRA, Metabolic Activation: RAT, LIVER, S-9, Method: STANDARD PLATE): inactive; negative | mutagenic call (Test System: MOUSE LYMPHOMA, Strain/Indicator: L5178Y (TK+/TK-), Metabolic Activation: NONE, Method: SUSPENSION/PLATE): inactive; negative | mutagenic call (Test System: MOUSE LYMPHOMA, Strain/Indicator: L5178Y (TK+/TK-), Metabolic Activation: RAT, LIVER, S-9, AROCLOR 1254, Method: SUSPENSION/PLATE): active; positive | mutagenic call (Test System: MOUSE LYMPHOMA, Strain/Indicator: L5178Y (TK+/TK-), Metabolic Activation: S-9, Method: SUSPENSION/PLATE): active; positive | mutagenic call (Test System: UDS RAT HEPATOCYTES, Strain/Indicator: BROMODEOXYURIDINE INCORP, Metabolic Activation: NONE, Method: FLOW CYTOMETRIC ANALYSIS): inactive; negative | mutagenic call (Test System: UDS RAT HEPATOCYTES, Strain/Indicator: THY INCORP, Metabolic Activation: NONE, Method: AUTORADIOGRAPHY): inactive; negative | mutagenic call (Test System: UDS RODENT HEPATOCYTES, Strain/Indicator: THY INCORP, Metabolic Activation: NONE, Method: AUTORADIOGRAPHY): inactive; negative | mutagenic call (Test System: UDS, Strain/Indicator: HEPG2/THYMIDINE INCORPORATION, Metabolic Activation: NONE, Method: AUTORADIOGRAPHY): inactive; negative

COC(=O)c1cc(Oc2ccc(Cl)cc2Cl)ccc1[N+](=O)[O-]
mutagenic call (Test System: AMES SALMONELLA TYPHIMURIUM, Strain/Indicator: YG1021, Metabolic Activation: NONE, Method: PREINCUBATION): inactive; negative | mutagenic call (Test System: AMES SALMONELLA TYPHIMURIUM, Strain/Indicator: YG1021, Metabolic Activation: RAT, LIVER, S-9, PCB, Method: PREINCUBATION): inactive; negative | mutagenic call (Test System: AMES SALMONELLA TYPHIMURIUM, Strain/Indicator: YG1026, Metabolic Activation: NONE, Method: PREINCUBATION): inactive; negative | mutagenic call (Test System: AMES SALMONELLA TYPHIMURIUM, Strain/Indicator: YG1026, Metabolic Activation: RAT, LIVER, S-9, PCB, Method: PREINCUBATION): active; positive

O=C1CN(/N=C/C=C/c2ccc([N+](=O)[O-])o2)C(=O)N1
mutagenic call [5]: active; positive | mutagenic call [2]: active; positive | mutagenic call [4]: active; positive | mutagenic call (Test System: E. COLI WP2, Strain/Indicator: WP2, Metabolic Activation: NONE, Method: SPOT): active; positive

Cc1cn2c(N=O)c(-c3ccc([N+](=O)[O-])cc3)nc2s1
mutagenic call [2]: active; positive | mutagenic call [4]: active; positive | mutagenic call (Test System: AMES SALMONELLA TYPHIMURIUM, Strain/Indicator: TA1535, Metabolic Activation: NONE, Method: STANDARD PLATE): inactive; negative | mutagenic call (Test System: AMES SALMONELLA TYPHIMURIUM, Strain/Indicator: TA1537, Metabolic Activation: NONE, Method: STANDARD PLATE): inactive; negative | mutagenic call (Test System: AMES SALMONELLA TYPHIMURIUM, Strain/Indicator: TA1538, Metabolic Activation: NONE, Method: STANDARD PLATE): active; positive
